# Test results reported in publication PMC4667193 (Scientific Reports, 2015).
# Experiments:
# [1] = test system: rat primary hippocampal cell culture; assay: total [^3H]inositol phosphate accumulation in hippocampal cells; assay type: cell-based; conditions: 10^−8 to 10^−3 M
# Procedure: Hippocampal cells (1 × 10^6 cells/well) were allowed to equilibrate for 10 minutes with a nutrient solution of the following composition (mM): NaCl 157.00; KCl 5.60; CaCl2 0.27; MgCl2 3.00; NaHCO3 1.80; glucose 5.50 (pH 7.0–7.2) at 37 °C under constant shaking. Cells were incubated with 5 μCi of myo[^3H]inositol (specific activity 18.0 Ci/mmol) for 80 minutes, and lithium chloride (10 mM) for additional 30 minutes. Afterwards, the cells were incubated in the absence (basal level) and in the presence of carbachol (positive control) and AEME (10^−8 to 10^−3 M) for 10 minutes. Cells were removed from the plate using a 0.1 M NaOH solution and washed three times with nutrient solution, transferred to 2 mL of methanol:chloroform (2:1 v-v) at 4 °C and homogenized with a Ultra-Turrax T25 homogenizer at 9500 rpm. Chloroform (0.62 mL) and H2O (0.93 mL) were added to the homogenate, and the solution was centrifuged for 5 minutes at 1,000× g to separate aqueous and organic phases. Total [^3H]inositol phosphate was measured as previously described by Ascoli et al.[45] with slight modification. The aqueous layer was neutralized with 0.1 M HCl and then mixed with 1 mL anion-exchange resin (Dowex AG-X8, formate form, 200–400 mesh), allowed to equilibrate for 30 minutes at room temperature, under agitation, and centrifugated at 1,000× g, for 5 minutes at 4 °C. The resin was then washed sequentially, with 10 mM myo-inositol (2 mL) and 5 mM sodium tetraborate/60 mM sodium formate (2 mL). The resin was incubated for 30 minutes at room temperature with 2 mL of 0.1 M formic acid/1 M ammonium formate). The total [^3H]inositol phosphate was eluted and placed in scintillation vials containing OptiPhase HiSafe 3. The amount of radioactivity was determined in scintillation β-counter (LS 6500 IC, Beckman). Total [^3H]inositol phosphate was expressed as percentage above basal level.
# [2] = molecular target: T1, Rat M4 mAChR (Rattus norvegicus, UniProt P08485); assay: calcium mobilization assay in CHO cells (Gqi5); assay type: cell-based; conditions: rat M4, 100 μM AEME on ACh curve
# T1 construct: host or cells: CHO (CHO-K1) cells
# T1 sequence (P08485 1-478): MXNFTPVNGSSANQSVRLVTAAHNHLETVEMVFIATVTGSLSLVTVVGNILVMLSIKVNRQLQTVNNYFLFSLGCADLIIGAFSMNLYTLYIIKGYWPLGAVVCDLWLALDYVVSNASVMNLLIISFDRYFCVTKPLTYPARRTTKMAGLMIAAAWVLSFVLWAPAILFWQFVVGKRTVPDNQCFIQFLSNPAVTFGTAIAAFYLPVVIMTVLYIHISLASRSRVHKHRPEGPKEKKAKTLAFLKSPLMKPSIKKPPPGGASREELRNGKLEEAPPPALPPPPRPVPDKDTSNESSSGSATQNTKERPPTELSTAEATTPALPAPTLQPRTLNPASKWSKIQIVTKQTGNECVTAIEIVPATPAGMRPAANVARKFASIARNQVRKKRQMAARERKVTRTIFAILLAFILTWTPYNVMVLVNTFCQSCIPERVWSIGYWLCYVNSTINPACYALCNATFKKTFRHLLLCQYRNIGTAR
# Procedure: Chinese hamster ovary (CHO) cells individually and stably expressing individual rat mAChRs (rM1 to rM5 mAChRs) were purchased from the American Type Culture Collection (ATCC) and cultured according to ATCC recommendations. To generate stable rM2 and rM4 cell lines for use in calcium mobilization assays, rM2 and rM4-expressing cells were stably transfected with a chimeric G protein (Gqi5) using Lipofectamine 2000 (Invitrogen). rM2 and rM4 cells were grown in Ham’s F-12 medium containing 10% heat-inactivated fetal bovine serum (FBS), 2 mM GlutaMAX (Gibco®), 20 mM HEPES, 500 μg/mL G418 sulfate, 200 μg/mL hygromycin B and an antibiotic-antimycotic solution (Gibco®). rM1, rM3 and rM5 mAChR-CHO cells were grown in the same medium without hygromycin B[48]. CHO cells were cultured in a 150 mm-diameter cell culture-treated dishes (Corning®) at 37 °C and 5% CO2 until complete confluence.
# CHO cells expressing rM1, rM3 and rM5 were plated at 4 × 10^4 cells per well, whereas rM2 and rM4 were plated at 6 × 10^4 cells per well, in standard growth media (as described previously under “cell culture”) in 96-well plates 24 hours before assay and were incubated overnight at 37 °C in 5% CO2. […] Cells were incubated for 45 minutes (37 °C, 5% CO2) for dye loading. […] AEME concentration-response curves were determined in single-add experiments. […]
# [3] = test system: rat primary hippocampal cell culture; assay: intracellular calcium release in hippocampal cells (Fluo4-AM); assay type: cell-based; conditions: 10^−5, 10^−4 and 10^−3 M AEME
# Procedure: Hippocampal cells were removed from the plates and previously incubated with Fluo4-AM dye (Invitrogen) dissolved in Neurobasal medium (Gibco®) for one hour[46]. The cells were centrifuged (300 g for 5 minutes at 20 °C), washed with phosphate buffer solution (PBS) without calcium, and plated in microscopy confocal (Zeiss LSM 510, Meta) microplates pretreated with poli-L-lysine. The fluorescence was measured for 90 seconds in the absence and/or in the presence of 10^−5, 10^−4 and 10^−3 M AEME. After this period, 250 mM KCl was added in order to promote neuronal […] and, thus, verify its viability. All measurements were performed with a PBS free-calcium solution. Digitalized images were analyzed through the software Origin 5.
# [4] = test system: caspase-3; set-up: method as in PMID 22523227; conditions: hippocampal neurons, 6 hours of exposure; cited from earlier work
structure (smiles),measurement,setting,value
"COC(=O)C1=CC[C@@H]2CC[C@H]1N2C [AEME, anhydroecgonine methyl ester]",effect on total [^3H]inositol phosphate,[1],concentration-dependent increase
same,concentration giving maximum inositol phosphate accumulation,[1]; 10 minutes,10^−5 M
same,mechanism of action,[2],antagonized the effects of ACh
same,intracellular calcium release,[3],concentration-dependent increase
same,caspase-3 activity,[4],increased
